What follows are molecules tested on γ-secretase (production of amyloid beta protein Aβ (1-42)) (assay: Cell-based γ-secretase assay with ELISA readout (Aβ (1-42) production)). Conditions: Geometric mean of at least 2 determinations; Table 3; read-out: Aβ 42 IC50 (μM)*.
Set-up: species or system human WT-APP overexpressing CHO cells
Procedure: Cell-Based γ-Secretase Assay with ELISA Readout
The ability of compounds to modulate production of amyloid beta protein Aβ (1-42) was determined using human WT-APP overexpressing CHO cells. Cells were plated at 22,000 cells/100 μL well in 96 well tissue culture treated, clear plates (Falcon) in DMEM/F12 based medium and incubated for 24 hours at 37° C. Compounds for testing were diluted in 100% DMSO to achieve an eleven points, half log, dose response for IC50 determinations. Compounds were added in fresh medium to achieve 1% final DMSO. Appropriate vehicle and inhibitor controls were added to obtain maximum and minimum inhibition values for the assay before the plates were incubated for about 24 hours at 37° C.
Coating of ELISA assay plates was initiated by addition of 50 μL/well of an in-house Aβ (1-42) specific antibody at (4 μg/mL) in 0.1 M NaHCO3 (pH 9.0) into black 384-well Maxisorp® plates (Nunc) and incubated overnight at 4° C. The capture antibody was then aspirated from the ELISA assay plates and 100 μL/well of Blocking Buffer (Dulbecco's PBS, 1.5% BSA (Sigma A7030)) added. Ambient temperature incubation was allowed to proceed for a minimum of two hours before washing 2×100 μL with Wash Buffer (Dulbecco's PBS, 0.05% Tween 20). Assay Buffer (Dulbecco's PBS, 1.0% BSA (Sigma A7030), 0.05% Tween 20) 20 μL/well was then added.
After incubation overnight at 37° C., 5% CO2, 40 μL (in duplicate) of experimental conditioned media were transferred into wells of the blocked ELISA plates containing the capture antibody, followed by overnight incubation at 4° C. Cell toxicity was measured in the corresponding cells after removal of the media for the Aβ (1-42) assay by a colorimetric cell proliferation assay (CellTiter 96® AQueous One Solution Cell Proliferation Assay, Promega) according to the manufacturer's instructions.
After overnight incubation of the ELISA assay plates at 4° C., unbound Aβ peptides were removed thorough (4×100 μL) washes with Wash Buffer. Europium (Eu) labeled (custom labeled, Perkin Elmer) Aβ (1-16) 6e10 Monoclonal Antibody (Covance #SIG-39320 was added, (50 μL /well Eu-6e10 @ 1:5000, 20 uM EDTA) in Assay Buffer. Incubation at ambient temperature for a minimum of 2 hours was followed by (4×100 μL) washes with Wash Buffer, before 50 μL/well of Delfia Enhancement Solution (Perkin Elmer) was added. Following a one hour ambient temperature incubation, the plates were read on an EnVision plate reader (Perkin Elmer) using standard DELFIA TRF settings. Data analysis including inhibitory IC50 determination was performed using nonlinear regression fit analysis (in-house software) and the appropriate plate mean values for the maximum and minimum inhibition controls.
For COc1nc(C(=O)NC2COc3ccc(C(F)(F)F)cc32)ccc1-n1cnc(C)c1 (stereo not drawn) [Example 56, 6-methoxy-5-(4-methy-1H-imidazol-1-yl)-N-[5-(trifluoromethyl)-2,3-dihydro-1-benzofuran-3-yl]pyridine-2-carboxamide], the IC50 was 0.478 µM. In the case of COc1nc(C(=O)NC2COc3c(C)cc(Cl)cc32)ccc1-n1cnc(C)c1 (stereo not drawn) [Example 52, N-(5-chloro-7-methyl-2,3-dihydro-1-benzofuran-3-yl)-6-methoxy-5-(4-methyl-1H-imidazol-1-yl)pyridine-2-carboxamide], the IC50 is reported as 0.364 µM. Molecule COc1nc(C(=O)NC2COc3cc(C)c(Cl)cc32)ccc1-n1cnc(C)c1 (stereo not drawn) [Example 50, N-[5-chloro-6-methyl-2,3-dihydro-1-benzofuran-3-yl]-6-methoxy-5-(4-methyl-1H-imidazol-1-yl)pyridine-2-carboxamide] has an IC50 of 0.2 µM.

Same assay, conditions: human WT-APP overexpressing CHO cells; Aβ (1-42) ELISA; about 24 hours at 37° C.; free base or salt; read-out: Aβ 42B IC50 (μM) (Geometric Mean of 2-8 Determinations)
Work on COc1nc(C(=O)NCC2CCCC2)ccc1-n1cnc(C)c1 [Example 33, N-(cyclopentylmethyl)-6-methoxy-5-(4-methyl-1H-imidazol-1-yl)pyridine-2-carboxamide] yielded an IC50 of 0.726 µM. Work on COc1cc(C(=O)N2CC[C@H](Oc3ccccc3C(F)(F)F)C2)ncc1-n1cnc(C)c1 [Example 20, 4-methoxy-5-(4-methyl-1H-imidazol-1-yl)-2-({(3S)-3-[2-(trifluoromethyl)-phenoxy]pyrrolidin-1-yl}carbonyl)pyridine] yielded an IC50 of 5.33 µM. COc1nc(C(=O)NCc2cccc(C(F)(F)F)c2)ccc1-n1cnc(C)c1 [Example 30, 6-methoxy-5-(4-methyl-1H-imidazol-1-yl)-N-[3-(trifluoromethyl)benzyl]-pyridine-2-carboxamide] showed an IC50 of 0.502 µM. For COc1nc(C(=O)NCCc2nc3ccc(Cl)cc3o2)cnc1-n1cnc(C)c1 [Example 12, N-[2-(6-chloro-1,3-benzoxazol-2-yl)ethyl]-6-methoxy-5-(4-methyl-1H-imidazol-1-yl)pyrazine-2-carboxamide], the IC50 was 1.43 µM. Work on COc1nc(C(=O)NCC2(c3cccc(C)c3)CCC2)cnc1-n1cnc(C)c1 [Example 10, 6-methoxy-5-(4-methyl-1H-imidazol-1-yl)-N-{[1-(3-methylphenyl)cyclobutyl]-methyl}pyrazine-2-carboxamide] yielded an IC50 of 0.827 µM. Work on COc1nc(C(=O)NC(C)(C)c2cccc(Cl)c2)cnc1-n1cnc(C)c1 [Example 15, N-[1-(3-chlorophenyl)-1-methylethyl]-6-methoxy-5-(4-methyl-1H-imidazol-1-yl)pyrazine-2-carboxamide] yielded an IC50 of 1.82 µM. For COc1cc(C(=O)NCC2(c3ccc(C(F)(F)F)cc3)CCOCC2)ncc1-n1cnc(C)c1 [Example 23, 4-methoxy-5-(4-methyl-1H-imidazol-1-yl)-N-({4-[4-(trifluoromethyl)phenyl]-tetrahydro-2H-pyran-4-yl}methyl)pyridine-2-carboxamide], the IC50 was 17.2 µM. COc1nc(C(=O)NCc2cc(C)ccc2C)ccc1-n1cnc(C)c1 [Example 38, N-(2,5-dimethylbenzyl)-6-methoxy-5-(4-methyl-1H-imidazol-1-yl)pyridine-2-carboxamide] gave an IC50 of 0.667 µM. COc1nc(C(=O)NCC2(c3ccccc3)CCCC2)ccc1-n1cnc(C)c1 [Example 25, 6-methoxy-5-(4-methyl-1H-imidazol-1-yl)-N-[(1-phenylcycloentyl)methyl] pyridine-2-carboxamide] was tested, and the IC50 was 0.316 µM. In the case of Cc1cn(-c2ncc(C(=O)NCC3(c4ccc(F)cc4)CC3)cc2Cl)cn1 [Example 35, 5-chloro-N-{[1-(4-fluorophenyl)cyclopropyl]-methyl}-6-(4-methyl-1H-imidazol-1-yl)nicotinamide], the IC50 is reported as 5.77 µM. COc1nc(C(=O)NCC2(c3ccc(Cl)cc3)CCCC2)cnc1-n1cnc(C)c1 [Example 14, N-{[1-(4-chlorophenyl)cyclopentyl]methyl}-6-methoxy-5-(4-methyl-1H-imidazol-1-yl)pyrazine-2-carboxamide] showed an IC50 of 1.45 µM. In the case of COc1nc(C(=O)NCc2cnc(-c3ccccc3)s2)cnc1-n1cnc(C)c1 [Example 16, 6-methoxy-5-(4-methyl-1H-imidazol-1-yl)-N-[(2-phenyl-1,3-thiazol-5-yl)methyl]pyrazine-2-carboxamide], the IC50 is reported as 1.94 µM.
